From patent publication US20090270443A1, “1-AMINO IMIDAZO-CONTAINING COMPOUNDS AND METHODS” (priority 2004, published 2009) come the findings set out here.

Consider `CCOCc1nc2c(N)nc(C)c(C)c2n1NC(C)C` [Example 1, 2-(Ethoxymethyl)-N^1-isopropyl-6,7-dimethyl-1H-imidazo[4,5-c]pyridine-1,4-diamine], for which the melting point (as a rule, the temperature, or range, at which the solid turns liquid) was in the range of 110 to 120 °C.

Regarding `CCOCc1nc2c(N)ncc(C)c2n1NC(C)C` [Example 2, 2-(Ethoxymethyl)-N^1-isopropyl-7-methyl-1H-imidazo[4,5-c]pyridine-1,4-diamine], the melting point was 119 to 121 °C.

In turn, `CCOCc1nc2c(N)nc(C)cc2n1NC(C)C` [Example 3, 2-(Ethoxymethyl)-N^1-isopropyl-6-methyl-1H-imidazo[4,5-c]pyridine-1,4-diamine] had a melting point of 139 to 141 °C.

`CCOCc1nc2c(N)nc3cccnc3c2n1NC(C)C` [Example 4, 2-(Ethoxymethyl)-N^1-isopropyl-1H-imidazo[4,5-c][1,5]naphthyridine-1,4-diamine] yielded a melting point of 150 to 152 °C.

`CC(C)Nn1c(CO)nc2c(N)nc3cccnc3c21` [Example 6, [4-Amino-1-(isopropylamino)-1H-imidazo[4,5-c][1,5]naphthyridin-2-yl]methanol] displayed a melting point of 242 to 243 °C.

In turn, `CCc1nc2c(N)nc3cccnc3c2n1NC(C)C` [Example 7, 2-Ethyl-N^1-isopropyl-1H-imidazo[4,5-c][1,5]naphthyridine-1,4-diamine] yielded a melting point of 212 to 213 °C.

`CCc1nc2c(N)nc3cccnc3c2n1NCCCNS(C)(=O)=O` [Example 8, N-{3-[(4-amino-2-ethyl-1H-imidazo[4,5-c][1,5]naphthyridin-1-yl)amino]propyl}methanesulfonamide]: the melting point was in the range of 176 to 178 °C.

The molecule `CCOCc1nc2c(N)nc(C)c(C)c2n1N(C)C` [Example 9, 2-(Ethoxymethyl)-N^1,N^1,6,7-tetramethyl-1H-imidazo[4,5-c]pyridine-1,4-diamine] had a melting point of 170 to 171 °C.

Take `Cc1nc(N)c2ncn(N(C)C)c2c1C` [Example 10, N^1,N^1,6,7-Tetramethyl-1H-imidazo[4,5-c]pyridine-1,4-diamine]: the melting point was 205 to 207 °C.

As to `Cc1nc(N)c2nc(C)n(NC(C)C)c2c1C` [Example 11, N^1-Isopropyl-2,6,7-trimethyl-1H-imidazo[4,5-c]pyridine-1,4-diamine], the melting point was in the range of 203 to 205 °C.

`Cc1nc(N)c2nc(CO)n(NC(C)C)c2c1C` [Example 12, (4-Amino-1-isopropylamino-6,7-dimethyl-1H-imidazo[4,5-c]pyridin-2-yl)methanol] yielded a melting point of 257 to 259 °C.

Molecule `CCOCc1nc2c(N)nc(C)c(C)c2n1NCCCNS(C)(=O)=O` [Example 13, N-{3-[(4-Amino-2-ethoxymethyl-6,7-dimethyl-1H-imidazo[4,5-c]pyridin-1-yl)amino]propyl}methanesulfonamide] yielded a melting point of 147 to 149 °C.

Molecule `CCOCc1nc2c(N)nc(C)c(C)c2n1NCCCNC(=O)C1CCCCC1` [Example 14, N-{3-[(4-Amino-2-ethoxymethyl-6,7-dimethyl-1H-imidazo[4,5-c]pyridin-1-yl)amino]propyl}cyclohexanecarboxamide] returned a melting point of 166 to 168 °C.

Molecule `Cc1nc(N)c2nc(C)n(NCCCNS(C)(=O)=O)c2c1C` [Example 15, N-{3-[(4-Amino-2,6,7-trimethyl-1H-imidazo[4,5-c]pyridin 1-yl)amino]propyl}methanesulfonamide] showed a melting point of 215 to 217 °C.

As for `CCOCc1nc2c(N)nc(C)c(C)c2n1NCCCNC(=O)NC(C)C` [Example 16, 1-{3-[(4-Amino-2-ethoxymethyl-6,7-dimethyl-1H-imidazo[4,5-c]pyridin-1-yl)amino]propyl}-3-isopropylurea], the melting point lay in the range of 203 to 205 °C.

Consider `CCOCc1nc2c(N)nc(C)c(C)c2n1NC1CCCCC1` [Example 17, N^1-Cyclohexyl-2-ethoxymethyl-6,7-dimethyl-1H-imidazo[4,5-c]pyridine-1,4-diamine], for which the melting point is 108 to 110 °C.

In the case of `Cc1nc(N)c2nc(CO)n(NC3CCCCC3)c2c1C` [Example 18, (4-Amino-1-cyclohexylamino-6,7-dimethyl-1H-imidazo[4,5-c]pyridin-2-yl)methanol], the melting point was > 250 °C.

In the case of `CCOCc1nc2c(N)nc(C)c(C)c2n1NCc1cccnc1` [Example 19, 2-Ethoxymethyl-6,7-dimethyl-N^1-(pyridin-3-yl)methyl-1H-imidazo[4,5-c]pyridine-1,4-diamine], the melting point was in the range of 147 to 149 °C.

`Cc1nc(N)c2nc(CO)n(NCc3cccnc3)c2c1C` [Example 20, [4-Amino-6,7-dimethyl-1-(pyridin-3-yl)methylamino-1H-imidazo[4,5-c]pyridin-2-yl]methanol] registered a melting point of 258 to 260 °C.

Molecule `CCOCc1nc2c(N)nc(C)c(C)c2n1NCc1ccccc1` [Example 21, N^1-Benzyl-2-ethoxymethyl-6,7-dimethyl-1H-imidazo[4,5-c]pyridine-1,4-diamine] had a melting point of 149 to 151 °C.

On to `Cc1nc(N)c2nc(CO)n(NCc3ccccc3)c2c1C` [Example 22, (4-Amino-1-benzylamino-6,7-dimethyl-1H-imidazo[4,5-c]pyridin-2-yl)methanol], for which the melting point is > 250 °C.

For the molecule `CCOCc1nc2c(N)nc(C)c(C)c2n1NC1CCC1` [Example 23, N^1-Cyclobutyl-2-ethoxymethyl-6,7-dimethyl-1H-imidazo[4,5-c]pyridine-1,4-diamine], the melting point lay within 139 to 141 °C.

As to `Cc1nc(N)c2nc(CO)n(NC3CCC3)c2c1C` [Example 24, (4-Amino-1-cyclobutylamino-6,7-dimethyl-1H-imidazo[4,5-c]pyridin-2-yl)methanol], the melting point lay within 211 to 213 °C.

As to `CCOCc1nc2c(N)nc(C)c(C)c2n1NC1CCOCC1` [Example 25, 2-Ethoxymethyl-6,7-dimethyl-N^1-(tetrahydropyran-4-yl)-1H-imidazo[4,5-c]pyridine-1,4-diamine], the melting point fell in the range of 120 to 122 °C.

With `Cc1nc(N)c2nc(CO)n(NC3CCOCC3)c2c1C` [Example 26, [4-Amino-6,7-dimethyl-1-(tetrahydropyran-4-yl)amino-1H-imidazo[4,5-c]pyridin-2-yl]methanol], the melting point was > 250 °C.

The molecule `CCOCc1nc2cnc(C)c(C)c2n1NC1CCOCC1` [Example 27, 2-Ethoxymethyl-6,7-dimethyl-N-(tetrahydropyranyl)-1H-imidazo[4,5-c]pyridin-1-amine] had a melting point of 94 to 97 °C.

The molecule `Cc1nc(N)c2nc(C)n(NC3CCCCC3)c2c1C` [Example 28, N^1-Cyclohexyl-2,6,7-trimethyl-1H-imidazo[4,5-c]pyridine-1,4-diamine] yielded a melting point of 242 to 244 °C.

Consider `CCc1nc2c(N)nc(C)c(C)c2n1NC1CCCCC1` [Example 29, N^1-Cyclohexyl-2-ethyl-6,7-dimethyl-1H-imidazo[4,5-c]pyridine-1,4-diamine], for which the melting point was 190 to 192 °C.

With `Cc1nc(N)c2ncn(NC3CCCCC3)c2c1C` [Example 30, N^1-Cyclohexyl-6,7-dimethyl-1H-imidazo[4,5-c]pyridine-1,4-diamine], the melting point lay in the range of 259 to 261 °C.

With `CCCCc1nc2c(N)nc(C)c(C)c2n1NC1CCCCC1` [Example 31, 2-Butyl-N^1-cyclohexyl-6,7-dimethyl-1H-imidazo[4,5-c]pyridine-1,4-diamine], the melting point was in the range of 160 to 162 °C.

Molecule `Cc1nc(N)c2nc(C)n(NC3CCOCC3)c2c1C` [Example 32, 2,6,7-Trimethyl-N^1-(tetrahydropyran-4-yl)-1H-imidazo[4,5-c]pyridine-1,4-diamine] yielded a melting point of 240 to 242 °C.

For the molecule `CCCc1nc2c(N)nc(C)c(C)c2n1NC1CCCCC1` [Example 33, N^1-Cyclohexyl-6,7-dimethyl-2-propyl-1H-imidazo[4,5-c]pyridine-1,4-diamine], the melting point is 177 to 179 °C.

The molecule `CCOCc1nc2c(N)nc3cccnc3c2n1NCc1ccccc1` [Example 34, N^1-Benzyl-2-ethxoymethyl-1H-imidazo[4,5-c][1,5]naphthyridine-1,4-diamine] gave a melting point of 169 to 171 °C.

Turning to `Nc1nc2cccnc2c2c1nc(CO)n2NCc1ccccc1` [Example 35, (4-Amino-1-benzylamino-1H-imidazo[4,5-c][1,5]naphthyridin-2-yl)methanol], the melting point lay within 237 to 239 °C.

In turn, `CCOCc1nc2cnc3cccnc3c2n1NC1CCOCC1` [Example 36, 2-Ethxoymethyl-N-(tetrahydro-2H-pyran-4-yl)-1H-imidazo[4,5-c][1,5]naphthyridin-1-amine] yielded a melting point of 130 to 133 °C.

In the case of `CCOCc1nc2c(N)nc3cccnc3c2n1NC1CCOCC1` [Example 37, 2-Ethxoymethyl-N^1-(tetrahydro-2H-pyran-4-yl)-1H-imidazo[4,5-c][1,5]naphthyridine-1,4-diamine], the melting point was 191 to 193 °C.

Molecule `OCc1nc2cnc3cccnc3c2n1NC1CCOCC1` [Example 38, [1-(Tetrahydro-2H-pyran-4-yl)amino-1H-imidazo[4,5-c][1,5]naphthyridin-2-yl]methanol] displayed a melting point of 203 to 205 °C.

In turn, `CCOCc1nc2c(N)nc(C)c(C)c2n1NCCCS(C)(=O)=O` [Example 39, 2-(Ethoxymethyl)-6,7-dimethyl-N^1-[3-(methylsulfonyl)propyl]-1H-imidazo[4,5-c]pyridine-1,4-diamine] yielded a melting point of 150 to 155 °C.

For `CCOCc1nc2c(N)nc(C)c(C)c2n1NC1CCN(S(C)(=O)=O)CC1` [Example 40, 2-(Ethoxymethyl)-6,7-dimethyl-N^1-[1-(methylsulfonyl)piperidin-4-yl]-1H-imidazo[4,5-c]pyridine-1,4-diamine], the melting point lay within 127 to 131 °C.

Molecule `CCOCc1nc2c(N)nc(C)c(C)c2n1NCc1ccc(Cl)c(Cl)c1` [Example 45, N^1-(3,4-Dichlorobenzyl)-2-ethoxymethyl-6,7-dimethyl-1H-imidazo[4,5-c]pyridine-1,4-diamine] displayed a melting point of 186 to 188 °C.

`CCOCc1nc2c(N)nc(C)c(C)c2n1NC1CCCC1` [Example 46, N^1-Cyclopentyl-2-ethoxymethyl-6,7-dimethyl-1H-imidazo[4,5-c]pyridine-1,4-diamine] had a melting point of 130 to 132 °C.
